Results as given in US20170103183A1, “Model Generation for Drug Determination” (NORWEGIAN UNIVERSITY OF SCIENCE AND TECHNOLOGY, priority 2015, published 2017).

Test system: AGS cells xenograft tumors
Assay: Subcutaneous AGS xenograft tumors in Balb/c mice
Format: in vivo
Conditions: single agent, low dose (PI103 5 mg/kg/d; (5Z)-7-oxozeaenol 3 mg/kg/d)
Experimental: To validate the beneficial response to one of the combination predicted and validated in cell line experiments the inventors generated subcutaneously injected xenograft tumors in Balb/c mice. 100 μl of 2×10^5 AGS cells were mixed with 100 μl of Matrigel and injected subcutaneously n the right flanks of 40 mice. Tumors were allowed to grow for 4 weeks, and mice with palpable tumors (n=30) were randomized to four groups: control, PI103 (5 mg/kg/d), (5Z)-7-oxozeaenol (3 mg/kg/d) and combination group which received both PI103 (5 mg/kg/d) and (5Z)-7oxozeaenol (3 mg/kg/d). Mice were injected with inhibitors or vehicle three times per week for a total of seven injections. Tumors were measured twice weekly using callipers and estimated volume from the formula V=0.5*d12*d2, where d1 is shortest diameter and d2 is longest diameter of tumor. Randomization was set up so that tumor volume was similar among groups at onset of treatment. […] Similar results were obtained for Mann-Whitney tests.

Row | Structure (SMILES) | activity of individual agent on tumor size compared to control
1 | COc1cc(O)c2c(c1)/C=C/C[C@H](O)[C@H](O)C(=O)/C=C\C[C@H](C)OC2=O [(5Z)-7-oxozeaenol] | non-significant
2 | Oc1cccc(-c2nc(N3CCOCC3)c3oc4ncccc4c3n2)c1 [PI103] | non-significant
